PMC7767506, “Synthesis and Characterization of Store-Operated Calcium Entry Inhibitors Active in the Submicromolar Range” (International Journal of Molecular Sciences, 2020)
Read-outs that look alike come from different tables or passages of the source.

Tests used:
Jurkat cell SOCE [1] = experiment: Thapsigargin-induced SOCE in Jurkat cells, Indo-1 [Ca2+]cyt measurement; type: cell-based, human; conditions: for Ki: 1 µM thapsigargin 10 min, compound added 30 s prior to 1 mM CaCl2
Description: To visualize SOCE, we performed a classical protocol: Jurkat cells in Ca^2+-free HBS medium are stimulated by 1 µM thapsigargin (TG, black arrow, Figure 2A) during 600 s to allow the release of Ca^2+ ions by the ER, and the subsequent opening of the store-operated Ca^2+ channels (SOCC). Addition of 1 mM CaCl2 allowed for a massive entry of Ca^2+ ions through SOCC leading thus to an increase of the cytosolic calcium concentration ([Ca^2+]cyt). To test 2-APB and its analogues, different concentrations of compounds were added 30 s prior to Ca^2+ addition.
[Ca^2+]cyt was recorded by a fluorimetric ratio technique as previously described. Leukocytes were spun and resuspended at a density of 10^6 cells/mL in Hepes buffered saline (HBS; 135 mM NaCl, 5.9 mM KCl, 1.2 mM MgCl2, 11.6 mM Hepes, 11.5 mM glucose adjusted to pH 7.3 with NaOH). Due to the presence of 0.002% Ca^2+ in the NaCl, this HBS medium contained 0.1 mM of Ca^2+. Then, cells were incubated in the dark with 4 μM Indo-1-AM for one hour at room temperature under slow agitation. Cells were then centrifuged and resuspended in HBS medium before measurement. To perform the experiments, 0.5 to 1 × 10^6 cells were suspended in 2 mL HBS in a quartz cuvette and inserted into a spectrofluorophotometer (RF-1501 Shimadzu Corporation, Kyoto, Japan) connected to a PC computer (Dell Computer Corp., Montpellier, France). A temperature of 37°C was maintained by circulating water from a bath. Ultraviolet light of 360 nm was used for excitation of Indo-1, and emissions at 405 and 480 nm were recorded. Background and autofluorescence of the cell suspension were subtracted from the recordings. The maximum Indo-1 fluorescence (Rmax) was obtained by adding 1 µM ionomycin to the cell suspension in the presence of 10 mM extracellular CaCl2. Minimum fluorescence was determined following the depletion of external Ca^2+ with 5 mM EGTA.
To visualize the SOCE, cells were placed into the quartz cuvette and 0.5 EGTA was added just before the beginning of the recordings. To induce the SOCE, the cells were treated with 1 μM thapsigargin (TG) during 10 min in Ca^2+-free HBS to induce Ca^2+ release from the ER and the opening of SOCE channels. Then, 1 mM CaCl2 was added to measure the change in [Ca^2+]cyt subsequently to Ca^2+ influx. In the dose-response experiments, different concentrations of 2-APB and its analogs were added 30 s prior to Ca^2+ readdition.

[2] = system: ER Ca2+ stores of L15 fibroblasts; experiment: Basal Ca2+ leak from ER stores, unidirectional 45Ca2+ flux in permeabilized L15 fibroblasts; type: cell-based
Description: (§1) Measurements of SERCA-mediated ^45Ca^2+ store loading and IP3-dependent release from the ER Ca^2+ store were performed on permeabilized cells in unidirectional conditions. As this approach required the use of cells forming strongly adherent monolayers, we used L15 fibroblasts stably overexpressing IP3R1, similarly to our previous work.
The L15 fibroblasts stably overexpressing IP3R1 were seeded in gelatin-coated 12-well plates (Greiner, Frickenhausen, Germany) at a density of 60,000 cells per well. Unidirectional ^45Ca^2+ flux experiments on confluent cell monolayers were performed at 30 °C after membrane permeabilization with saponin (40 µg/mL), exactly as previously described. After permeabilization, the non-mitochondrial Ca^2+ stores were loaded for 45 min in 120 mM KCl, 30 mM imidazole–HCl (pH 6.8), 5 mM MgCl2, 5 mM ATP, 0.44 mM EGTA, 10 mM NaN3, and 150 nM free ^45Ca^2+ (28 µCi mL^−1). Subsequently, efflux was initiated by incubation in efflux medium (120 mM KCl, 1 mM EGTA, 10 µM TG and 30 mM imidazole–HCl pH 6.8). […] The exact amount of Ca^2+ at each time point is calculated by summing in retrograde order the amount of radioactivity remaining in the cells at the end of the efflux and the radioactivity collected during the successive time intervals. […] These various parameters were measured both in control conditions or in the presence of various 2-APB analogs as indicated. […]

SERCA = SERCA (Mus musculus, UniProt O55143); experiment: SERCA-mediated 45Ca2+ store loading in permeabilized L15 fibroblasts; type: cell-based; conditions: 100 µM; read-out: change of SERCA activity
Chain of SERCA (O55143 whole entry): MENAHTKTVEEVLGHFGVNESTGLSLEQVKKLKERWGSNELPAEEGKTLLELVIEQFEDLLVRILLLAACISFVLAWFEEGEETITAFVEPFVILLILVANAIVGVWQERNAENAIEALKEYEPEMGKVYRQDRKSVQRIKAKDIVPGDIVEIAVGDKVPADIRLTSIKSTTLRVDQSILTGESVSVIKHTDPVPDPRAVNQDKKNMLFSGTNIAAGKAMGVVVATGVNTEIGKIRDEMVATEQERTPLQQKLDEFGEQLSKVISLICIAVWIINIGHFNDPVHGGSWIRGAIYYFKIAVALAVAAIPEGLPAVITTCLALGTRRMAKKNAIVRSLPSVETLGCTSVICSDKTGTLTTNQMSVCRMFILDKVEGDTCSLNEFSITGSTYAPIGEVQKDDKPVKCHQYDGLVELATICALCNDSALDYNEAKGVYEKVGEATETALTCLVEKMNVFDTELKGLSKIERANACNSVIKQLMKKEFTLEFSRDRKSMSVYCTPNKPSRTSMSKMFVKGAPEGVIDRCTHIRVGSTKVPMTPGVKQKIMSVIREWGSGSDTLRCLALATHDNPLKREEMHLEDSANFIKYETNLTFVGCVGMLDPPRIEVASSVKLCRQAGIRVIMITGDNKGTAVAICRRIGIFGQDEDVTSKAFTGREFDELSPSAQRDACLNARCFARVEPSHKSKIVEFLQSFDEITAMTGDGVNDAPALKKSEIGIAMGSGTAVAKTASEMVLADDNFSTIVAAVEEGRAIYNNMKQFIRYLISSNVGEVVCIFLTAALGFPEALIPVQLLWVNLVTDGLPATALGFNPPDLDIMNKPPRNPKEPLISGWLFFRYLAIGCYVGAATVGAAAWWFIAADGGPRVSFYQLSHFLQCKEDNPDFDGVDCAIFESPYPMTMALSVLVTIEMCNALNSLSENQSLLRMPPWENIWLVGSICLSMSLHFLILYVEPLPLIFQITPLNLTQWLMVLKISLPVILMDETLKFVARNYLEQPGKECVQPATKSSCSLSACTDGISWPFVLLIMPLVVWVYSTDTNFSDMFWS
Description: as §1
(§2) The L15 fibroblasts stably overexpressing IP3R1 were seeded in gelatin-coated 12-well plates (Greiner, Frickenhausen, Germany) at a density of 60,000 cells per well. Unidirectional ^45Ca^2+ flux experiments on confluent cell monolayers were performed at 30 °C after membrane permeabilization with saponin (40 µg/mL), exactly as previously described. After permeabilization, the non-mitochondrial Ca^2+ stores were loaded for 45 min in 120 mM KCl, 30 mM imidazole–HCl (pH 6.8), 5 mM MgCl2, 5 mM ATP, 0.44 mM EGTA, 10 mM NaN3, and 150 nM free ^45Ca^2+ (28 µCi mL^−1). Subsequently, efflux was initiated by incubation in efflux medium (120 mM KCl, 1 mM EGTA, 10 µM TG and 30 mM imidazole–HCl pH 6.8). The latter medium was replaced every two minutes for 18 minutes. The exact amount of Ca^2+ at each time point is calculated by summing in retrograde order the amount of radioactivity remaining in the cells at the end of the efflux and the radioactivity collected during the successive time intervals. This allows to calculate the steady-state content of the ER Ca^2+ stores (indicative for the SERCA activity, after subtraction of the loading achieved in the presence of 2 µM TG) the basal leak rate of Ca^2+ out of the stores and the IP3-induced Ca^2+ release after addition of IP3 (0.7 µM). These various parameters were measured both in control conditions or in the presence of various 2-APB analogs as indicated. To assess the effect of the 2-APB analogs on the SERCA-mediated loading of the ER Ca^2+ stores, the analogs were added during the ^45Ca^2+-loading phase as described previously. Obviously, compounds that strongly stimulated the basal Ca^2+ leak out of the stores (as P8) could not be investigated for their effect on SERCA activity (as Ca^2+ loading was already compromised by the increased leak) or on IP3-induced Ca^2+ release (as the decreased luminal Ca^2+ level impacted both the driving force for Ca^2+ release and the sensitivity of the IP3R).

IP3R1 = biological target: T1, IP3R1 (Mus musculus, UniProt P11881); experiment: IP3-induced Ca2+ release (IICR) in permeabilized L15 fibroblasts overexpressing IP3R1; type: cell-based; conditions: permeabilized L15 fibroblasts
T1 construct: expressed in transfected cells; host or cells: L15 fibroblast cell line (gift of Katsuhiko Mikoshiba), saponin-permeabilized
T1 sequence (P11881 whole entry): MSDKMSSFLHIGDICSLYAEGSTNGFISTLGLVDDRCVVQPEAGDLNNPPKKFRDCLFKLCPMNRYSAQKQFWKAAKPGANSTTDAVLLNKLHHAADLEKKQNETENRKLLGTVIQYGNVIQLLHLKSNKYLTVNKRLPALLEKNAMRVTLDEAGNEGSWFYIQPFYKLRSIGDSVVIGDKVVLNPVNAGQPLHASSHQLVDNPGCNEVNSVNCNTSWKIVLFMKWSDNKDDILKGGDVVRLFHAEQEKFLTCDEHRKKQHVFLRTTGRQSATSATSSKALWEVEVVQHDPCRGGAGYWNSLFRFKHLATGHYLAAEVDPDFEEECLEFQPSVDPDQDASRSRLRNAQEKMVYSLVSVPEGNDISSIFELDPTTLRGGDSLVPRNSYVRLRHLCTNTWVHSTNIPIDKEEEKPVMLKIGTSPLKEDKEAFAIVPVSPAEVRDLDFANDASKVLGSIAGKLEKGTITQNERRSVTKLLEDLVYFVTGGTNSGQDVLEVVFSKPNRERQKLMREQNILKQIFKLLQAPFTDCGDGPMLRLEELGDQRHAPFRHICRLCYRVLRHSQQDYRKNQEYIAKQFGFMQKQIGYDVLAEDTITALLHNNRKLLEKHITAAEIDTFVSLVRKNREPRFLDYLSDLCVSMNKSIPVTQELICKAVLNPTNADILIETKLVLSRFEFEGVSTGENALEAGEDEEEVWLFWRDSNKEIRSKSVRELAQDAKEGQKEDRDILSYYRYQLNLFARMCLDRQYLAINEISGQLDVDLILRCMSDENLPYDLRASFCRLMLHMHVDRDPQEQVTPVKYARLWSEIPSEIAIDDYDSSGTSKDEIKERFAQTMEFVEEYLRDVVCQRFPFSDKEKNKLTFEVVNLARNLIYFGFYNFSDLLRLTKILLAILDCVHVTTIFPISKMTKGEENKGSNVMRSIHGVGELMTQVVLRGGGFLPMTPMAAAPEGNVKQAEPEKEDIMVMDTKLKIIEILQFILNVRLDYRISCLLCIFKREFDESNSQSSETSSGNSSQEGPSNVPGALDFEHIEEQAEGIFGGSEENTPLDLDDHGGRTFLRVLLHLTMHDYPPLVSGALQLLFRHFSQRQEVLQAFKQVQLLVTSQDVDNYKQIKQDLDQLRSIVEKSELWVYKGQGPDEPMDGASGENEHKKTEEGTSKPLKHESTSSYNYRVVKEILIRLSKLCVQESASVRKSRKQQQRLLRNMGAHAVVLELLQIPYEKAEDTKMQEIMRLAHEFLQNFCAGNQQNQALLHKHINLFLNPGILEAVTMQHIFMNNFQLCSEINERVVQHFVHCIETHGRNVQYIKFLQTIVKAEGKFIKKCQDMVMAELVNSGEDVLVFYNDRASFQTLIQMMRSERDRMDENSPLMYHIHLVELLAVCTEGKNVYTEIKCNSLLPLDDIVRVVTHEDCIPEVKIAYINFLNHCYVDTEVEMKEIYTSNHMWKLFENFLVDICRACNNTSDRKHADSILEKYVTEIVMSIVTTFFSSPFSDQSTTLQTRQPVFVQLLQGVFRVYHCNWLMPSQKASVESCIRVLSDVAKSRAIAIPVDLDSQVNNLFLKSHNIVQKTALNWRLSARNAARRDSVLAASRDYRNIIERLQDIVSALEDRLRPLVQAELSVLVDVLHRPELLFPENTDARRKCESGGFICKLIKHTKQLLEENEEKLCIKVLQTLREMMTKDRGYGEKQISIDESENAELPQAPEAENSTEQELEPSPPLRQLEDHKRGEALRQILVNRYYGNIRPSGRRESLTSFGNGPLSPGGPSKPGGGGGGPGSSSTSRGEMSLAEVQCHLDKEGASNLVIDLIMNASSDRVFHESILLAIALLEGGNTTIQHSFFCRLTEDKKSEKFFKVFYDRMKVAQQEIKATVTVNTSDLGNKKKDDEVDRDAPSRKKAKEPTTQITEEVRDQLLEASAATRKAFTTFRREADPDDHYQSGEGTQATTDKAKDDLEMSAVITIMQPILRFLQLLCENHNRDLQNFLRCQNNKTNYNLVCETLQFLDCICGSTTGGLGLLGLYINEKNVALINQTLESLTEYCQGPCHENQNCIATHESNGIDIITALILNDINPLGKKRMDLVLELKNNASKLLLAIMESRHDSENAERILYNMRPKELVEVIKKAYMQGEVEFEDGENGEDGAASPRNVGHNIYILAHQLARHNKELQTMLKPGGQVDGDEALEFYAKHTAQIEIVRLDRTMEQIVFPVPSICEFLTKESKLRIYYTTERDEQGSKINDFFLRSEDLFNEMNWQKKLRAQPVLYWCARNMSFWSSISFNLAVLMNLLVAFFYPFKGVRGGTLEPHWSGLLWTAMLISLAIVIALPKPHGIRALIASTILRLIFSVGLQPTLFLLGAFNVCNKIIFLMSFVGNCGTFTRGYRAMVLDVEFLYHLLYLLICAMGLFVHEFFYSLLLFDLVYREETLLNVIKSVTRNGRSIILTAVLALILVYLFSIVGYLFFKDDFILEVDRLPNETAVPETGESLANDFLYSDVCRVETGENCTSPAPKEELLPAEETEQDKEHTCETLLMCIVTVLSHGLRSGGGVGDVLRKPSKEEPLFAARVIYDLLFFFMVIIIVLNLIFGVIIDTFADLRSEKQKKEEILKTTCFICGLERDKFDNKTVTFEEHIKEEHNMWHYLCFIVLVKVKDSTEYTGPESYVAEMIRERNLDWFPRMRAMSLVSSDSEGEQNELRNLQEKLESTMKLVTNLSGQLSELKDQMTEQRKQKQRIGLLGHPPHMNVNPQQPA
Description: as §1
as §2, with “Obviously, compounds that strongly stimulated the basal Ca^2+ leak out of the stores (as P8) could not be investigated for their effect on SERCA activity (as Ca^2+ loading was already compromised by the increased leak) or on IP3-induced Ca^2+ release (as the decreased luminal Ca^2+ level impacted both the driving force for Ca^2+ release and the sensitivity of the IP3R).” left out

Jurkat cell SOCE [3] = conditions: leukocyte SOCE; cited from earlier work
[4] = Jurkat cells, read-out: Ki (nM), inhibition constant on SOCE
[5] = Jurkat cells, read-out: Ki (µM), inhibition constant on SOCE

Compound	Ki (Jurkat cell SOCE [1]; [4])	Ki (Jurkat cell SOCE [1]; [5])	further results
Cc1ccc([B-]2(c3ccc(C)c(Cl)c3)[NH2+]CCO2)cc1Cl [P15]	294 ± 74 nM	~300 nM	–
2-((bis(3,4-dimethylphenyl)boryl)oxy)ethanamine [P7]	751 ± 97 nM	–	–
2-((bis(3,5-dimethylphenyl)boryl)oxy)ethanamine [P10]	484 ± 116 nM	~500 nM	concentration of complete/full SOCE inhibition (Jurkat cell SOCE [1]; Jurkat cells): 3 µM
2-((di(naphthalen-2-yl)boryl)oxy)ethanamine [P6]	275 ± 17 nM	–	–
2-((bis(4-methoxyphenyl)boryl)oxy)ethanamine [P2]	–	3500 ± 650 nM	–
2-((bis(4-(tert-butyl)phenyl)boryl)oxy)ethanamine [P8]	350 ± 40 nM	–	Ca2+ leak from the ER by an IP3-independent pathway [2]: strong Ca^2+ leak
NCCOB(c1ccc2sccc2c1)c1ccc2sccc2c1 [P12, 2-(dibenzo[b]thiophen-5-ylboryloxy)ethanamine]	374 ± 96 nM	–	–
2-(((4-methoxyphenyl)(p-tolyl)boryl)oxy)ethanamine [P16]	–	3100 ± 600 nM	–
CCCCc1ccc([B-]2(c3ccc(CCCC)cc3)[NH2+]CCO2)cc1 [P9]	641 ± 103 nM	–	inhibition at 100 µM (SERCA): 52 ± 3%; inhibition of IP3R activity (IP3R1): did not significantly inhibit
2-((di-p-tolylboryl)oxy)ethanamine [P3]	–	3500 ± 600 nM	–
2-((bis(3-methoxyphenyl)boryl)oxy)ethanamine [P4]	–	75000 ± 21000 nM	maximal inhibition of SOCE (Jurkat cell SOCE [1]; Jurkat cells): ≈ 80%
CC1(C)c2ccccc2-c2ccc([B-]3(c4ccc5c(c4)C(C)(C)c4ccccc4-5)[NH2+]CCO3)cc21 [P17]	–	> 100000 nM	effect on SOCE amplitude (Jurkat cell SOCE [1]; concentrations >3 µM, higher concentrations disrupted the fluorescence): no effect
Fc1ccc([B-]2(c3ccc(F)cc3)[NH2+]CCO2)cc1 [P14]	–	5400 ± 300 nM	–
2-((di-m-tolylboryl)oxy)ethanamine [P5]	–	2100 ± 600 nM	–
Clc1ccc([B-]2(c3ccc(Cl)cc3)[NH2+]CCO2)cc1 [P13]	–	1800 ± 100 nM	–
((diphenylboryl)oxy)ethanamine [2-APB, reference compound]	–	–	SOCE potentiation, % of control [Ca2+]cyt increase (Jurkat cell SOCE [1]; 5 µM, Jurkat cells): > 200%; SOCE inhibition (Jurkat cell SOCE [1]; 50 µM, Jurkat cells): almost total inhibition; concentration of full SOCE block (Jurkat cell SOCE [3]): 20 to 30 µM
